From publication PMC11951083, “Highly Specific Miniaturized Fluorescent Monoacylglycerol Lipase Probes Enable Translational Research” (Journal of the American Chemical Society, 2025)

Tests used:
[1] = target: PDE4D2 (h) (Homo sapiens, UniProt Q08499); experiment: PDE4D2 (h); details: read-out: Inhibition PDE4D2 (h)
[2] = target: T1, GR (h) (Homo sapiens, UniProt P04150); experiment: GR (h) (agonist radioligand); details: read-out: Inhibition GR (h) (agonist radioligand)
T1 sequence (P04150 1-777): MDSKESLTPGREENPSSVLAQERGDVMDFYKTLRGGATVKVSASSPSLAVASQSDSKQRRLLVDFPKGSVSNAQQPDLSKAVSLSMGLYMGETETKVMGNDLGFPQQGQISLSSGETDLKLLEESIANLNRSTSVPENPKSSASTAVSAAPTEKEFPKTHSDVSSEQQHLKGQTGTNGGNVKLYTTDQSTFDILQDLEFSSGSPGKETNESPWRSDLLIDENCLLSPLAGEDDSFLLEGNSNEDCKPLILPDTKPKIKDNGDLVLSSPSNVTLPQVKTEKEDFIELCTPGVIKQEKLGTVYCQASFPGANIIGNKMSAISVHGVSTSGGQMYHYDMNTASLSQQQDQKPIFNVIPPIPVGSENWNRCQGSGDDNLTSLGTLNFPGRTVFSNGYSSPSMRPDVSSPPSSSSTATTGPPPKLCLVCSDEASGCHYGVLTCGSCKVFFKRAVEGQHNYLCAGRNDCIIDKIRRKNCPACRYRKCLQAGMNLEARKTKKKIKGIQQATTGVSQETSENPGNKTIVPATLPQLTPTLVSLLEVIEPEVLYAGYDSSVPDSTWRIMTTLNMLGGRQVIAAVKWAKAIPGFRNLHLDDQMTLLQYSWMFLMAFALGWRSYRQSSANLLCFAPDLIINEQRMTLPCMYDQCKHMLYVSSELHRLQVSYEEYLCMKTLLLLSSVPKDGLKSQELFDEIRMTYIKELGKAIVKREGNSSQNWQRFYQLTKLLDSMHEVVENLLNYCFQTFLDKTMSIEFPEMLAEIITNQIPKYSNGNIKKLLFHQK

[3] = target: CB1 (h) (Homo sapiens, UniProt P21554); experiment: CB1 (h) (agonist radioligand); details: read-out: Inhibition CB1 (h) (agonist radioligand)
[4] = target: T2, AT1 (h) (Homo sapiens, UniProt P30556); experiment: AT1 (h) (antagonist radioligand); details: read-out: Inhibition AT1 (h) (antagonist radioligand)
T2 sequence (P30556 1-359): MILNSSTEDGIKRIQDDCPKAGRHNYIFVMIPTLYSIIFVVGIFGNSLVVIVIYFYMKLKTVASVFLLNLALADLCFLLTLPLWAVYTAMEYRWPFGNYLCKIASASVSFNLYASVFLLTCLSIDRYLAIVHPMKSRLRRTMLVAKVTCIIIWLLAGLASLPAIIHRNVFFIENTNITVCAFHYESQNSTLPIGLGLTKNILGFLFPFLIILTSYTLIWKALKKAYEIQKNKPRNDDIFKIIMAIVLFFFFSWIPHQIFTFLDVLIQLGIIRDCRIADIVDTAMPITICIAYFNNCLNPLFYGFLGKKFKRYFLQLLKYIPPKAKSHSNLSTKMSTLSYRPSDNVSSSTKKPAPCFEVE

[5] = target: 5-HT2A (h) (Homo sapiens, UniProt P28223); experiment: 5-HT2A (h) (agonist radioligand); details: read-out: Inhibition 5-HT2A (h) (agonist radioligand)
[6] = target: 5-HT2B (h) (Homo sapiens, UniProt P41595); experiment: 5-HT2B (h) (agonist radioligand); details: read-out: Inhibition 5-HT2B (h) (agonist radioligand)
[7] = target: T3, 5-HT3 (h) (Homo sapiens, UniProt P46098); experiment: 5-HT3 (h) (antagonist radioligand); details: read-out: Inhibition 5-HT3 (h) (antagonist radioligand)
T3 sequence (P46098 24-478): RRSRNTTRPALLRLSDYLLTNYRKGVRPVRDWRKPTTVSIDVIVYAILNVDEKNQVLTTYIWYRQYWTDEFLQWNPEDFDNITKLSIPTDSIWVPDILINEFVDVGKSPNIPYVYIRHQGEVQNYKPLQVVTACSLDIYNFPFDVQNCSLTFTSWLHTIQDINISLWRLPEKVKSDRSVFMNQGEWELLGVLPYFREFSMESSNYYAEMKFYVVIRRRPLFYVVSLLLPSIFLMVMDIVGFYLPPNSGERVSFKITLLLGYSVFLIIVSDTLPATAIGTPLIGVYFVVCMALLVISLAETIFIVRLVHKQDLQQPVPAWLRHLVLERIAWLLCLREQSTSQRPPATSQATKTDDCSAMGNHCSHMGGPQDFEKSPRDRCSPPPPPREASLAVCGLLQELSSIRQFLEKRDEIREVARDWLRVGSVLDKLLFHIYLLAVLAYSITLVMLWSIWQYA

[8] = target: T4, CCK1 (CCKA) (h) (Homo sapiens, UniProt P32238); experiment: CCK1 (CCKA) (h) (agonist radioligand); details: read-out: Inhibition CCK1 (CCKA) (h) (agonist radioligand)
T4 sequence (P32238 1-428): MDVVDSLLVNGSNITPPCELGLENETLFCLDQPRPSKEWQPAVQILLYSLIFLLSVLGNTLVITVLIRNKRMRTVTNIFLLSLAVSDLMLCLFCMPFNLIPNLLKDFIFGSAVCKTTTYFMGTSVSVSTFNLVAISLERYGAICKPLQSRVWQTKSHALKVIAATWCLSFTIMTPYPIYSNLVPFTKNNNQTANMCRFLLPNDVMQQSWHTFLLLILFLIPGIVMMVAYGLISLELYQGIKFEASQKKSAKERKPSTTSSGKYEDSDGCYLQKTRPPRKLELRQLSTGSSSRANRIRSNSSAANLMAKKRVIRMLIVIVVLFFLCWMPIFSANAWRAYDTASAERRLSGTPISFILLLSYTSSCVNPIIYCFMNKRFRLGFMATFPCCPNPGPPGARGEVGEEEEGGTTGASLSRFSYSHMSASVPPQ

[9] = target: norepinephrine transporter (h) (Homo sapiens, UniProt P23975); experiment: norepinephrine transporter (h) (antagonist radioligand); details: read-out: Inhibition norepinephrine transporter (h) (antagonist radioligand)
[10] = target: glycine (strychnine-insensitive) (Rattus norvegicus, UniProt P35439); experiment: glycine (strychnine-insensitive) (antagonist radioligand); details: read-out: Inhibition glycine (strychnine-insensitive) (antagonist radioligand)
glycine (strychnine-insensitive), sequence (P35439 394-800): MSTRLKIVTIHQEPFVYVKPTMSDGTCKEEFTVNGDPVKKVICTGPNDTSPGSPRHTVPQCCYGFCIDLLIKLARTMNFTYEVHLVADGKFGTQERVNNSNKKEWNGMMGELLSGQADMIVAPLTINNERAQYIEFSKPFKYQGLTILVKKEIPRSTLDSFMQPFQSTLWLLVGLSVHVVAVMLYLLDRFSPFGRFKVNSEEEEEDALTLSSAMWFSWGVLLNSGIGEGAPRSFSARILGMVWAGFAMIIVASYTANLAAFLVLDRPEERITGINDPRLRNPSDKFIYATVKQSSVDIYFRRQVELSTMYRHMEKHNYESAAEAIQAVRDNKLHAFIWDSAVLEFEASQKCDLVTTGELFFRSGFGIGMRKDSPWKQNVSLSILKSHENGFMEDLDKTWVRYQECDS

norepinephrine transporter (h), sequence (P23975 whole entry): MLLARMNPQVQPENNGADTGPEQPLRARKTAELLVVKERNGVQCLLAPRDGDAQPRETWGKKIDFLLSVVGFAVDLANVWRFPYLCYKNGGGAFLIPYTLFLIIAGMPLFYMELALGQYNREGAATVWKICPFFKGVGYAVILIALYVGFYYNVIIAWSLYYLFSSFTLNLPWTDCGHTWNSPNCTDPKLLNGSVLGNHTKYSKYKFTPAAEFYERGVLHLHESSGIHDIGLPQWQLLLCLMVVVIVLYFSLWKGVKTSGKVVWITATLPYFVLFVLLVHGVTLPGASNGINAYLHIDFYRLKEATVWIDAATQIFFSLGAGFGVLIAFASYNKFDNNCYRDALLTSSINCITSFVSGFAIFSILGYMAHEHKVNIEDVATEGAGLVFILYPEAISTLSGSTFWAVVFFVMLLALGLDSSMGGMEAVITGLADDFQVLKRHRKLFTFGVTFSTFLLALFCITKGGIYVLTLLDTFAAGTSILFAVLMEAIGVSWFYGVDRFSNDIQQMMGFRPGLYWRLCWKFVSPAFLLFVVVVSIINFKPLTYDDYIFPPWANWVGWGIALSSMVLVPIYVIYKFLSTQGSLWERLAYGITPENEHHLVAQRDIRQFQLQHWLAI
5-HT2B (h), sequence (P41595 whole entry): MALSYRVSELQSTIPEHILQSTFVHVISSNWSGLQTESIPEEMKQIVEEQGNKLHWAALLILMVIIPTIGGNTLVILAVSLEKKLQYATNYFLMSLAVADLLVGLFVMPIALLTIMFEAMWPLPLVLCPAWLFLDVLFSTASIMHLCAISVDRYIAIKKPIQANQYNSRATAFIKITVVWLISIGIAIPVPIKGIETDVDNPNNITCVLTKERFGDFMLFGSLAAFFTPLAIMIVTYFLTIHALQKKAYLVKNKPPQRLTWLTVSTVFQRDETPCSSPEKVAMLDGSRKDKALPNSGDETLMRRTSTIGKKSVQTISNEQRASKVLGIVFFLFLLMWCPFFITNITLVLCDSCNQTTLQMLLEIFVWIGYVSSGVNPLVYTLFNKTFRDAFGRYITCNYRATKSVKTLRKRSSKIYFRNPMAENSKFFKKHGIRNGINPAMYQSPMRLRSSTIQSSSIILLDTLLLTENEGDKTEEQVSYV
PDE4D2 (h), sequence (Q08499 303-809 limits assumed): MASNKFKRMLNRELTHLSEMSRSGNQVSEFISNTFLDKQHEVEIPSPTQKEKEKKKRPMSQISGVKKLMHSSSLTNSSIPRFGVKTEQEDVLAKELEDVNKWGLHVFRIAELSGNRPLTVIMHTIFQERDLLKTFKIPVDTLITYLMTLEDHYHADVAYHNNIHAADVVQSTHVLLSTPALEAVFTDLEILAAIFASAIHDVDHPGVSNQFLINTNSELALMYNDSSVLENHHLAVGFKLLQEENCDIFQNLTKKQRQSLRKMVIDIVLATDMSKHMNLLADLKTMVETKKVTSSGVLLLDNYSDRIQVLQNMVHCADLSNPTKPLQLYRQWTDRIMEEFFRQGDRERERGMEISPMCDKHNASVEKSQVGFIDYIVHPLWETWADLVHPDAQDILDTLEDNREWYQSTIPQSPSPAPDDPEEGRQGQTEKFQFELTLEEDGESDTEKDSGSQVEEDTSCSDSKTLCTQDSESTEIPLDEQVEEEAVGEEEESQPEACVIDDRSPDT
5-HT2A (h), sequence (P28223 whole entry): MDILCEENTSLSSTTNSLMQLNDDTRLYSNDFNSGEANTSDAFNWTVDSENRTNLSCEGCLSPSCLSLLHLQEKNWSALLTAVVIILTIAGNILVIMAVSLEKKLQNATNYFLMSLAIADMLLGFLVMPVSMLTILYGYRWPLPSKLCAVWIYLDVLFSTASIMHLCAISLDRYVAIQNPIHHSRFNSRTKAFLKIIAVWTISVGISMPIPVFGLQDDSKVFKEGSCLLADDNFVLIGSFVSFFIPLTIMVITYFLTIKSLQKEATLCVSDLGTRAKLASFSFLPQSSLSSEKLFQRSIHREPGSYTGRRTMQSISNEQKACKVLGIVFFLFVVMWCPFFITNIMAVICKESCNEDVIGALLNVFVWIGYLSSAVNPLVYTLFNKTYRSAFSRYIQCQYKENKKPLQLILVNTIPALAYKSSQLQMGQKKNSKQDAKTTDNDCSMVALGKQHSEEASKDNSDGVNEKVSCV
CB1 (h), sequence (P21554 whole entry): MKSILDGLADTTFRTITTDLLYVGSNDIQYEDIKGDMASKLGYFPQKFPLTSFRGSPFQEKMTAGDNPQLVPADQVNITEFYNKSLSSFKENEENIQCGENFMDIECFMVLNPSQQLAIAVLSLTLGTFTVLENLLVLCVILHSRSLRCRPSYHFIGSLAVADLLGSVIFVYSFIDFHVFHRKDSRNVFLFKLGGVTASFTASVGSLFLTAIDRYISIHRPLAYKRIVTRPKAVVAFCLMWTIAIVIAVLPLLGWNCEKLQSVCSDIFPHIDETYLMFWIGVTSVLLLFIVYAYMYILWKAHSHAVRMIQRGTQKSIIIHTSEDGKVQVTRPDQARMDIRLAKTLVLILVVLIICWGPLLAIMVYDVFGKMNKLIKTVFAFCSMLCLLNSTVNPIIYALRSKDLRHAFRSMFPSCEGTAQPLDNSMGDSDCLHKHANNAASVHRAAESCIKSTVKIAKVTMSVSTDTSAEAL

Compound | inhibition at 10 µM [1] [%] | inhibition at 10 µM [2] [%] | inhibition at 10 µM [3] [%] | inhibition at 10 µM [4] [%] | inhibition at 10 µM [5] [%] | inhibition at 10 µM [6] [%] | inhibition at 10 µM [7] [%] | inhibition at 10 µM [8] [%] | inhibition at 10 µM [9] [%] | inhibition at 10 µM [10] [%]
O=C(O[C@H](CO)C(F)(F)F)N1CC2(CC(CC3=C4C=CC=[N+]4[B-](F)(F)n4cccc43)C2)C1 [Compound 1] | 18 | 13.9 | 4.4 | -4.3 | -13.2 | 28.3 | 7.4 | -3.8 | 7.4 | -6.7
O=C(OC(C(F)(F)F)C(F)(F)F)N1CC2(CC(CC3=C4C=CC=[N+]4[B-](F)(F)n4cccc43)C2)C1 [Compound 2] | -0.6 | 9.1 | -16.1 | -1.2 | -36.2 | 4.1 | -5.6 | -8.8 | -0.5 | 6.5
O=C(OC(C(F)(F)F)C(F)(F)F)N1CC2(CC(CC3=C4C=CC(c5ccc[nH]5)=[N+]4[B-](F)(F)n4cccc43)C2)C1 [Compound 2a] | -10.8 | 26.3 | 6.3 | 2.5 | -6.8 | 20.8 | 4.7 | 11.9 | 6.3 | -2
O=C1CO[C@H]2CCN(C(=O)N3CC4(CC(CC5=C6C=CC(c7ccc[nH]7)=[N+]6[B-](F)(F)n6cccc65)C4)C3)C[C@H]2N1 [Compound 4a] | 10.8 | 48.1 | -2.7 | -12.5 | 18.5 | 30.3 | 1.1 | -22.1 | 12.2 | 3.1
O=C(N1CC2(CC(CC3=C4C=CC=[N+]4[B-](F)(F)n4cccc43)C2)C1)N1CC2(CC(n3cnc(C4CC4)n3)C2)C1 [Compound 5] | 11.3 | 17.1 | 9.9 | 11.1 | -9.2 | 0.1 | 1.4 | -24.7 | 8.6 | -20.3
